Where a name gives a salt, the structure may show the parent alone. Read-outs that look alike come from different tables or passages of the source.
Key:
SGLT1 = biological target: T1, SGLT1 (Homo sapiens, UniProt P13866); experiment: SGLT1 inhibition assay for validation of screening hits and similar compounds (1‐NBD‐glucose uptake, CHO‐hSGLT1 cells); assay type: cell-based; set-up: activity: dose or concentration left out as unconfirmed; details: for inhibition at 50 µM: read-out: SGLT1 inhibition; for activity: compound, normalized 1-NBD-glucose uptake, CHO-hSGLT1 cells; for activity / remaining activity at 5 µM / remaining activity at 50 µM: mean; for remaining activity at 5 µM / remaining activity at 50 µM: 0.5 h, concentration not given, read-out: NORMALIZED SGLT1 ACTIVITY (%)
T1 sequence (P13866 1-664): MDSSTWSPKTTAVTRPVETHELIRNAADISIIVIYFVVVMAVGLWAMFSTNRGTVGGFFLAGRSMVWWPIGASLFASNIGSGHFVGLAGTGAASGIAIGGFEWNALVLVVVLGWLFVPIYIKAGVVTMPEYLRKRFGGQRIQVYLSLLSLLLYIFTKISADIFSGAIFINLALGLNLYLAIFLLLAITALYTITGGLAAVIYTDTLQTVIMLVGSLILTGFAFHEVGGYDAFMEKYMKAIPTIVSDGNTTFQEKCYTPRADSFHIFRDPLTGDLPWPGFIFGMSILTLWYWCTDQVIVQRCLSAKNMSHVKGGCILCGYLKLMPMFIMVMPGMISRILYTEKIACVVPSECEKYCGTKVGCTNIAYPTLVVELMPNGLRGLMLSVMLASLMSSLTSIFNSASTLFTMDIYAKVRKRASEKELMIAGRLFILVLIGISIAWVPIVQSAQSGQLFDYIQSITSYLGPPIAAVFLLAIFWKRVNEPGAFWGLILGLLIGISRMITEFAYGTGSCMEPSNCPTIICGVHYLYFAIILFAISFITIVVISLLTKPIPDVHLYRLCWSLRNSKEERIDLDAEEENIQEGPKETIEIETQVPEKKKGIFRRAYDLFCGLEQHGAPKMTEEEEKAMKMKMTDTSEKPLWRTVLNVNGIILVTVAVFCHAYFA

hSGLT2 = biological target: T2, hSGLT2 (Homo sapiens, UniProt P31639); experiment: SGLT2 inhibition assay for validation of screening hits and similar compounds (1‐NBD‐glucose uptake, CHO‐hSGLT2 cells); assay type: cell-based; set-up: activity: dose or concentration left out as unconfirmed; details: for activity: compound, normalized 1-NBD-glucose uptake, CHO-hSGLT2 cells; for activity / remaining activity at 5 µM / remaining activity at 50 µM: mean; for SGLT2/SGLT1 ACTIVITY RATIO 5 uM Mean: ratio of normalized SGLT2 to SGLT1 activity at 5 uM; for remaining activity at 5 µM / remaining activity at 50 µM: 0.5 h, concentration not given, read-out: NORMALIZED SGLT2 ACTIVITY (%)
T2 sequence (P31639 1-672): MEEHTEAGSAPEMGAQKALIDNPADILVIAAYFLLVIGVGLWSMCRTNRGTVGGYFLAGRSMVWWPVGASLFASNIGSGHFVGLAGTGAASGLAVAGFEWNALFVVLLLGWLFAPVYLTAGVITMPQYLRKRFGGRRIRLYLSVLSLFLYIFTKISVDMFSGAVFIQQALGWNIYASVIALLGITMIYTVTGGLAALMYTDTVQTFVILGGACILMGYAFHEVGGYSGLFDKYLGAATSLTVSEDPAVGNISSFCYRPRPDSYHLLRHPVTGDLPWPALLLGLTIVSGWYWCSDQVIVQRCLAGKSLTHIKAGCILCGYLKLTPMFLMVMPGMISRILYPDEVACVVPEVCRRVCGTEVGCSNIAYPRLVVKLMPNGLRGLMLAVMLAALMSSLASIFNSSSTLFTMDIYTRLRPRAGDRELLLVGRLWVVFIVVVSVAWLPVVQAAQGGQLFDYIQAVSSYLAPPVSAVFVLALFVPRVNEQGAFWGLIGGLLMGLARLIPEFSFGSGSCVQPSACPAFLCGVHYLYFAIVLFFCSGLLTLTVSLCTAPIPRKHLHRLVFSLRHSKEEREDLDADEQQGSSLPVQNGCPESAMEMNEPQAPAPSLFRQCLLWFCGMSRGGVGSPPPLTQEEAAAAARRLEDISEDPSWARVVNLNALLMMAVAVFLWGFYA

CHO‐hSGLT1/2 cells = experiment: Cytotoxicity assay (ToxiLight, adenylate kinase leakage into CHO‐SGLT1/2 inhibition assay media); set-up: CYTOTOXICITY / CY[…], mean / CYTOTOXICITY (% of vehicle control) Mean / CYTOTOXICITY, mean / CY[…] (% of vehicle control) Mean: dose or concentration left out as unconfirmed; details: for CY[…] 50 mM: at 50 mM (so in the source);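 on all read-outs here: bioluminescent read-out of adenylate kinase released from lysed cells into the medium, given relative to DMSO vehicle control defined as 0%, higher meaning more cytolysis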
[1] = 1‐NBD‐glucose uptake, CHO‐hSGLT1, mean of n biological replicates, or individual measurements where n=2, read-out: SGLT1‐IC50 Mean
[2] = mean inhibition with 50 μmol/L inhibitor
[3] = 1‐NBD‐glucose uptake, CHO‐hSGLT2, mean of n biological replicates, or individual measurements where n=2, read-out: SGLT2‐IC50 Mean
[4] = SGLT1 and/or SGLT2, discussion statements

Compound | remaining activity at 5 µM (SGLT1) [%] | remaining activity at 50 µM (SGLT1) [%] | remaining activity at 5 µM (hSGLT2) [%] | remaining activity at 50 µM (hSGLT2) [%] | also measured
Oc1ccc(C=Cc2cc(O)cc3c2C(c2cc(O)cc(O)c2)C(c2ccc(O)cc2)O3)cc1 (stereo not drawn) [(+)‐ε‐viniferin] |  |  |  |  | IC50 (SGLT1; [1]): 58 µM; SGLT2/SGLT1‐50μmol/L (ratio of SGLT2 to SGLT1 activities with 50 μmol/L inhibitor) (SGLT1; listed as (+)‐ε‐Viniferin): 1.4; inhibition at 50 µM (SGLT1; [2]): 44%; IC50 (hSGLT2; [3]): 110 µM; SGLT2 inhibition (hSGLT2; [2]): little inhibition of SGLT2
CN1CCc2cc3c(cc2C2OC(O)c4c(ccc5c4OCO5)C21)OCO3 (stereo not shown) [(Iso)rheagenine] |  |  |  |  | activity (SGLT1): 114%; activity (hSGLT2): 97%; SGLT2/SGLT1 ACTIVITY RATIO 5 uM Mean (hSGLT2): 0.857
Oc1ccc(C=Cc2cc(O)cc3c2C(c2cc(O)cc(O)c2)C(c2ccc(O)cc2)O3)cc1 (stereo not drawn) [(−)‐ε‐viniferin] |  |  |  |  | SGLT2/SGLT1‐50μmol/L (ratio of SGLT2 to SGLT1 activities with 50 μmol/L inhibitor) (SGLT1): 0.6; SGLT1 inhibition (SGLT1; [2]): did not inhibit SGLT1; inhibition at 50 µM (hSGLT2; [2]): 35%
CN1CCCCC1c1ccc(-c2cccnc2)nc1 (stereo not shown) [Anabasamine] | 114 | 100 | 103 | 91 | 
Clc1ccc(C2(Cn3cncn3)OCCO2)c(Cl)c1 [Azaconazole] | 111 | 107 | 109 | 104 | 
Oc1c(Br)cc(Br)c2cccnc12 [Broxyquinoline] | 110 | 69 | 100 | 90 | 
CCN(CC)CCOC(=O)C1(c2ccccc2)CCCC1 [Caramiphen, reference compound] |  |  |  |  | SGLT2/SGLT1‐50μmol/L (ratio of SGLT2 to SGLT1 activities with 50 μmol/L inhibitor) (SGLT1): 0.6; inhibition at 50 µM (SGLT1; [2]): 33%; inhibition at 50 µM (hSGLT2; [2]): 58%
CN(C)CCOC(c1ccc(Cl)cc1)c1ccccn1 (stereo not shown) [Carbinoxamine] |  |  |  |  | activity (SGLT1): 105%; activity (hSGLT2): 100%; SGLT2/SGLT1 ACTIVITY RATIO 5 uM Mean (hSGLT2): 1.0
C=C[C@H]1C[N@@]2CC[C@H]1C[C@@H]2[C@@H](O)c1ccnc2ccccc12 [Cinchonine] | 121 | 112 | 111 | 105 | 
CN1CCC[C@@H]1CCO[C@](C)(c1ccccc1)c1ccc(Cl)cc1 [Clemastine fumarate] |  |  |  |  | CY[…] 50 mM (CHO‐hSGLT1/2 cells; mean): 2.45
Oc1c(I)cc(Cl)c2cccnc12 [Clioquinol, 5-Chloro-7-iodo-8-quinolinol] | 107 | 84 | 107 | 92 | 
Clc1ccc(C(OCCN2CCCCC2)c2ccccc2)cc1 (stereo not shown) [Cloperastine, cloperastine, reference compound] |  |  |  |  | IC50 (SGLT1; [1]): 9 µM; SGLT1/2 inhibition stated in words (SGLT1; [4]): novel SGLT1/2 inhibitors; inhibition at 50 µM (SGLT1; [2]): 72%; IC50 (hSGLT2; [3]): 9 µM
CC[C@H]1CN2CC[C@H]1C[C@H]2[C@H](O)c1ccnc2ccc(OC)cc12 [Dihydroquinine] | 99 | 63 | 94 | 58 | 
COc1ccc2ccc(=O)oc2c1C(OC(C)=O)C(=O)C(C)C (stereo not shown) [Hainanmurpanin] |  |  |  |  | activity (SGLT1): 110%; activity (hSGLT2): 108%; SGLT2/SGLT1 ACTIVITY RATIO 5 uM Mean (hSGLT2): 1.0
O=C(/C=C/c1ccc(O[C@@H]2O[C@H](CO)[C@@H](O)[C@H](O)[C@H]2O)cc1)c1ccc(O)cc1O [Isoliquiritin] |  |  |  |  | SGLT2/SGLT1‐50μmol/L (ratio of SGLT2 to SGLT1 activities with 50 μmol/L inhibitor) (SGLT1): 1.4; activity (SGLT1): 96%; inhibition at 50 µM (SGLT1; [2]): 46%; activity (hSGLT2): 98%; inhibition at 50 µM (hSGLT2; [2]): 24%; SGLT2/SGLT1 ACTIVITY RATIO 5 uM Mean (hSGLT2): 1.0
CCN(CC)CC(=O)Nc1c(C)cccc1C [Lidocaine] | 90 | 82 | 90 | 77 | 

Compound | remaining activity at 5 µM (SGLT1) [%] | remaining activity at 50 µM (SGLT1) [%] | remaining activity at 5 µM (hSGLT2) [%] | remaining activity at 50 µM (hSGLT2) [%] | also measured
CN(C)CCN(Cc1cccs1)c1ccccn1 [Methapyrilene HCl] |  |  |  |  | CY[…] 50 mM (CHO‐hSGLT1/2 cells; mean): -16
CN1CCN2c3ncccc3Cc3ccccc3C2C1 (stereo not shown) [Mirtazapine] | 114 | 105 | 113 | 108 | 
Cc1cccc(C)c1NC(=O)CN1CCCC1=O [Nefiracetam] | 95 | 95 | 87 | 84 | 
Cc1ccccc1C(OCCN(C)C)c1ccccc1 (stereo not shown) [Orphenadrine HCl] |  |  |  |  | CYTOTOXICITY (% of vehicle control) Mean (CHO‐hSGLT1/2 cells; mean): 9 % of vehicle control
COc1cc2oc(=O)ccc2cc1C[C@@H](O)C(C)(C)O [Peucedanol] |  |  |  |  | activity (SGLT1): 100%; activity (hSGLT2): 95%
Cc1cccc(C)c1NC(=O)CC12CCCN1CCC2 [Pilsicainide] | 94 | 89 | 90 | 78 | 
OC[C@H]1O[C@@H](Oc2cc(O)cc(/C=C/c3ccc(O)cc3)c2)[C@H](O)[C@@H](O)[C@@H]1O [Polydatin] |  |  |  |  | SGLT2/SGLT1‐50μmol/L (ratio of SGLT2 to SGLT1 activities with 50 μmol/L inhibitor) (SGLT1): 1.5; activity (SGLT1): 94%; inhibition at 50 µM (SGLT1; [2]): 46%; activity (hSGLT2): 97%; inhibition at 50 µM (hSGLT2; [2]): 18%; SGLT2/SGLT1 ACTIVITY RATIO 5 uM Mean (hSGLT2): 1.0
CCCNC(C)C(=O)Nc1ccccc1C (stereo not shown) [Prilocaine] | 95 | 86 | 89 | 76 | 
OC(CCN1CCCC1)(c1ccccc1)C1CCCCC1 (stereo not shown) [Procyclidine HCl] |  |  |  |  | activity (SGLT1): 74%; activity (hSGLT2): 76%
COc1cc(O)c2c(=O)c(-c3ccc(OC4OC(CO)C(O)C(O)C4O)cc3)coc2c1 (stereo not shown) [Prunetin‐4‐p‐galactoside] |  |  |  |  | SGLT2/SGLT1‐50μmol/L (ratio of SGLT2 to SGLT1 activities with 50 μmol/L inhibitor) (SGLT1): 2.3; inhibition at 50 µM (SGLT1; [2]): 62%; inhibition at 50 µM (hSGLT2; [2]): 12%
CN[C@H]1CC[C@@H](c2ccc(Cl)c(Cl)c2)c2ccccc21 [Sertraline HCl] |  |  |  |  | CY[…], mean (CHO‐hSGLT1/2 cells; ToxiLight, adenylate kinase leakage): -21
CC(C)(C)C(=O)C(Oc1ccc(Cl)cc1)n1cncn1 (stereo not shown) [Triadimefon] | 101 | 58 | 91 | 76 | 
OC(CCN1CCCCC1)(c1ccccc1)C1CCCCC1 (stereo not shown) [Trihexyphenidyl, trihexyphenidyl, reference compound] |  |  |  |  | IC50 (SGLT1): 12 µM; SGLT1/2 inhibition stated in words (SGLT1): novel SGLT1/2 inhibitors; inhibition at 50 µM (SGLT1): 69%; IC50 (hSGLT2): 20 µM
Oc1ccc([C@H]2c3c(O)cc4c5c3[C@@H]([C@H](c3ccc(O)cc3)c3c(O)cc(O)cc3[C@H]5[C@@H](c3ccc(O)cc3)O4)[C@@H]2c2cc(O)cc(O)c2)cc1 [Viniferol D] | 100 | 102 | 97 | 65 | SGLT2/SGLT1‐50μmol/L (ratio of SGLT2 to SGLT1 activities with 50 μmol/L inhibitor) (SGLT1): 0.6; SGLT1 inhibition (SGLT1; [2]): no effect on SGLT1; inhibition at 50 µM (hSGLT2; [2]): 35%
Oc1ccc([C@H]2Oc3cc(O)cc4c3[C@@H]2c2cc(O)cc3c2[C@@H](c2cc(O)cc5c2[C@@H]4[C@H](c2ccc(O)cc2)O5)[C@H](c2ccc(O)cc2)O3)cc1 [a-Viniferin] | 96 | 102 | 104 | 109 | 
CCCCN1CCCC[C@H]1C(=O)Nc1c(C)cccc1C [levobupivacaine, reference compound] | 74 | 41 | 73 | 46 | SGLT1/2 inhibition stated in words (SGLT1; [4]): novel SGLT1/2 inhibitors
